Source: patent publication US20250127735A1, “NOVEL COMPOSITION COMPRISING N-ACETYLCYSTEINE FOR OVERCOMING THE ADVERSE EFFECTS OF A CHEMOTHERAPY” (PRONUTRI, priority 2022, published 2025)
Entries after “also recorded” stand apart in the source; their conditions may differ.

Experiments:
[1] = tested on: Piezo 2, CaVα2δ-1, ARNT2, Mafb and Kv1.4 gene expression; assay: qPCR of ion channel and transcription factor gene expression in mouse DRG primary culture treated with chemotherapy or oxidizing agent; format: cell-based
Description: Model: C57Bl6 females, 8 to 15 weeks old (sexually mature young adult mice)
The next morning, place 1.25 μg/ml cisplatin with the other molecules to be tested. […]
The RNA is extracted using Macherey-Nagel's “NucleoSpin RNA” kit.
Reverse transcriptions were performed following the protocol of the “SuperScript III Reverse Transcriptase” kit from Thermo Fisher Scientific, doubling the quantities of RNA and products used in order to obtain a higher concentration of cDNA.
The qPCRs were performed with undiluted cDNA obtained by reverse-transcription using 4.625 μL of cDNA and 5.375 μL of SyberROX PCR Mix (final 10 μL per well).
When the cycle threshold (CT)>35, the gene is considered to be not expressed in the cells analyzed.
To compare our results with and without treatment, we calculated the delta between the target gene and the reference gene (36B4) for each condition (e.g. dCTPIEZO2=CTPIEZO2−CT36B4=27.4−21.6=5.8 (control); 30.6-23.4=7.2 (cisplatin)).
We then calculated the delta delta CT of the target gene for the test condition and the control conditions (e.g. ddCTPIEZO2=dCTPIEZO2 (cisplatin)−[…]=7.2−5.8=1.4).
Finally, we determined the relative expression by calculating: 2^^−ddCT (e.g. for PIEZO2:2^^−ddCT=2^^−1.4=0.40).
The results correspond to the mean±SEM.
Mouse DRGs resulting from primary culture were treated with TBHP at 10 or 30 μM or with 1.25 μg/ml cisplatin (positive control) versus control (CTRL). mRNA expression was measured by qPCR and normalized with the 36B4 reference gene. The results correspond to the mean±SEM.

[2] = tested on: Arnt2, Piezo 2 and CaVα2δ-1 gene expression; assay: qPCR of reporter genes in primary cultured DRG neurons exposed to cisplatin plus test molecules; format: cell-based, mouse; details: for effect on Piezo2, CaVα2δ-1 and ARNT2 expression, molecule taken alone: ex vivo primary cultured neurons, 24 h exposure to 1.25 μg/ml cisplatin (FIGS. 5-9)
Description: Treatment of the DRGs for 24 hours.
The effect of different molecules was tested on the expression of the same reporter genes, Pizeo 2, CaVα2δ-1 and ARNT2, using qPCR on primary cultured DRG neurons: • NAC • Beta-carotene (provitamin A) • Vitamin B12 • Luteolin (flavone)

DRG neurons = assay: Phase-contrast microscopy of cultured DRG neurons (morphology, neuronal networks); format: cell-based, mouse; details: for effect on the morphology of DRG neurons (cell or network level): molecule taken alone with cisplatin, micrographs not shown
[3] = tested on: Piezo2, CaVα2δ-1 and ARNT2 expression; assay: Reporter gene expression in vivo in the animal exposed to a chemotherapy protocol; details: animal exposed to a chemotherapy protocol (not shown)
[4] = tested on: tactile hypersensitivity triggered by cisplatin and paclitaxel; assay: Von Frey test of tactile hypersensitivity / chemo-induced neuropathy; format: in vivo, mouse

N.N.[Cl][Pt][Cl] [cisplatin] was tested, and the “relative expression of PIEZO2 (2^-ddCT)” value ([1]; cells treated with cisplatin compared to control cells normalized to 1, reference gene 36B4) was 0.40 and the “effects on Mafb mRNA expression” value ([1]; cisplatin 1.25 μg/ml, 0, 4, 8 and 16 h, normalized with 36B4 (FIG. 3)) was “not significant”.

In the case of CC1=C(/C=C/C(C)=C/C=C/C(C)=C/C=C/C=C(C)/C=C/C=C(C)/C=C/C2=C(C)CCCC2(C)C)C(C)(C)CCC1 [beta-carotene, Beta-carotene], the “effect on Piezo2, CaVα2δ-1 and ARNT2 expression, molecule taken alone” value [2] was “effect only at a 5 μM dose, and not at the lower doses tested (0.3, 1 and 3 μM)” and the “toxicity to cultured neurons” value (DRG neurons; beta-carotene 5 μM (not shown)) was “slightly toxic”.

With CC(C)(C)OO [TBHP, tert-butyl hydroperoxide] the “expression of Kv1.4 (negative control)” value ([1]; TBHP at 10 or 30 μM (FIG. 4)) was “unaffected”.

O=c1cc(-c2ccc(O)c(O)c2)oc2cc(O)cc(O)c12 [luteolin, Luteolin] was tested, and the “effect on Piezo2, CaVα2δ-1 and ARNT2 expression, molecule taken alone” value [2] was “does not appear to bring any improvement” and the “effect on the morphology of DRG neurons (cell or network level)” value (DRG neurons) was “does not appear to bring any improvement”.

For cobalamin [vitamin B12], the “effect of vitamin B12 taken alone on gene expression” value ([2]; dose of 25 and 50 μM, 24 h, 1.25 μg/ml cisplatin (FIG. 7)) was “no effect”, the “effect on Piezo2, CaVα2δ-1 and ARNT2 expression, molecule taken alone” value [2] was “does not appear to have a conclusive chemoprotective effect” and the “toxicity to neuronal morphology” value (DRG neurons; vitamin B12 at a dose of 50 μM (not shown)) was “some toxicity”.

With CC(=O)N[C@@H](CS)C(=O)O [NAC, N-acetylcysteine] the “effect on Piezo2, CaVα2δ-1 and ARNT2 expression, molecule taken alone” value [2] was “allow Piezo2, CaVα2δ-1 and ARNT2 expression levels to rise; also recorded: strongly limits this disruption in expression”, the “effect on the morphology of DRG neurons (cell or network level)” value (DRG neurons) was “protective effect” and the “Piezo2, CaVα2δ-1 and ARNT2 expression levels in vivo” value [3] was “allow Piezo2, CaVα2δ-1 and ARNT2 expression levels to rise”. For the same compound, the “chemo-induced neuropathies in a mouse model” value ([4]; mouse model) was “suppresses the resulting neuropathies” and the “tactile hypersensitivity in response to mechanical stimuli (Von Frey test)” value ([4]; triggered by cisplatin and paclitaxel (not shown)) was “dramatically reduce tactile hypersensitivity”.
